# Experiments:
# [1] = everolimus; cited from earlier work
# [2] = Everolimus pharmacokinetics in whole blood (HPLC-MS/MS), single-agent and combined with metformin; type: in vivo, human; conditions: for k el: read-out: λz (converted); for half-life: all 7 patients, mean (SD)
# Method: (§1) The pharmacokinetic parameters were calculated using PKSolver. All P values were calculated using the R statistical programming language (paired Student’s t-test).
# endometrial cancer = conditions: cited from earlier work
# clinical = test: clinical
# Method: as §1
compound,measurement,setting,value
CO[C@H]1C[C@@H]2CC[C@@H](C)[C@@](O)(O2)C(=O)C(=O)N2CCCC[C@H]2C(=O)O[C@H]([C@H](C)C[C@@H]2CC[C@@H](OCCO)[C@H](OC)C2)CC(=O)[C@H](C)/C=C(\C)[C@@H](O)[C@@H](OC)C(=O)[C@H](C)C[C@H](C)/C=C/C=C/C=C/1C [everolimus],elimination half-life (t1/2),[1],30 h
same,Cmax,"[2]; everolimus 5 mg qd, in combination with metformin 500 mg bid, n = 2",39.45 ng/mL
same,Cmax,"[2]; everolimus 5 mg qd, single-agent, n = 2",34.80 ng/mL
same,AUC,"[2]; everolimus 10 mg qd, single-agent, AUC t = 0 to 24 h, n = 5, mean (SD)",0.713 (0.35) mg/l*h
same,AUC,"[2]; human, whole blood, oral, 5 mg, everolimus 5 mg qd, single-agent, n = 2, read-out: AUC",282 ng·h/mL
same,k el,"[2]; human, whole blood, oral, 5 mg, everolimus 5 mg qd, single-agent, n = 2",1.22e-05 s⁻¹
same,k el,"[2]; human, whole blood, oral, 10 mg, everolimus 10 mg qd, single-agent, n = 5, mean (SD)",7.78e-06 s⁻¹
same,clearance,"[2]; human, whole blood, oral, everolimus as single agent",162 mL/min
same,clearance,"[2]; human, whole blood, oral, everolimus in combination with metformin",300 mL/min
same,AUC,"[2]; human, whole blood, oral, everolimus 5 mg qd, in combination with metformin, n = 2, read-out: AUC",254 ng·h/mL
same,k el,"[2]; human, whole blood, oral, everolimus 5 mg qd, in combination with metformin, n = 2",9.72e-06 s⁻¹
same,AUC,"[2]; human, whole blood, oral, everolimus 10 mg qd, in combination with metformin, AUC t = 0 to 24 h, n = 5, mean (SD), read-out: AUC",639 ng·h/mL
same,k el,"[2]; human, whole blood, oral, everolimus 10 mg qd, in combination with metformin, n = 5, mean (SD)",8.06e-06 s⁻¹
same,half-life,"[2]; human, whole blood, oral, everolimus in combination with metformin (day 15)",23.2 h
same,half-life,"[2]; human, whole blood, oral, everolimus single-agent (day 7)",23.1 h
same,Cmax,"[2]; human, whole blood, oral, everolimus 10 mg qd, single-agent (day 7), n = 5, mean (SD), read-out: Cmax",73.1 ng/mL
CN(C)C(=N)N=C(N)N [metformin],rate of disease progression,"endometrial cancer; self-reported metformin use with an mTOR inhibitor, vs. 33% without",12%
same,response rate to an mTOR inhibitor,"endometrial cancer; self-reported metformin use, 94 patients, three trials of various mTOR inhibitors, vs. 7% without",18%
same,AUC,"clinical; human, in vivo, 500 mg",8320 ng·h/mL
same,k el,"clinical; human, in vivo, 500 mg",4.72e-05 s⁻¹
same,Cmax,"clinical; metformin 500 mg bid, in combination with everolimus (day 15), n = 5, mean (SD)",1027 (261) μg/l

# Reference: PMC5805805 (Investigational New Drugs, 2017)
